The target in the first assay is T1, human NaPi-IIb (Homo sapiens, UniProt O95436).
T1 construct: expressed in transfected cells
T1 sequence (O95436 1-690): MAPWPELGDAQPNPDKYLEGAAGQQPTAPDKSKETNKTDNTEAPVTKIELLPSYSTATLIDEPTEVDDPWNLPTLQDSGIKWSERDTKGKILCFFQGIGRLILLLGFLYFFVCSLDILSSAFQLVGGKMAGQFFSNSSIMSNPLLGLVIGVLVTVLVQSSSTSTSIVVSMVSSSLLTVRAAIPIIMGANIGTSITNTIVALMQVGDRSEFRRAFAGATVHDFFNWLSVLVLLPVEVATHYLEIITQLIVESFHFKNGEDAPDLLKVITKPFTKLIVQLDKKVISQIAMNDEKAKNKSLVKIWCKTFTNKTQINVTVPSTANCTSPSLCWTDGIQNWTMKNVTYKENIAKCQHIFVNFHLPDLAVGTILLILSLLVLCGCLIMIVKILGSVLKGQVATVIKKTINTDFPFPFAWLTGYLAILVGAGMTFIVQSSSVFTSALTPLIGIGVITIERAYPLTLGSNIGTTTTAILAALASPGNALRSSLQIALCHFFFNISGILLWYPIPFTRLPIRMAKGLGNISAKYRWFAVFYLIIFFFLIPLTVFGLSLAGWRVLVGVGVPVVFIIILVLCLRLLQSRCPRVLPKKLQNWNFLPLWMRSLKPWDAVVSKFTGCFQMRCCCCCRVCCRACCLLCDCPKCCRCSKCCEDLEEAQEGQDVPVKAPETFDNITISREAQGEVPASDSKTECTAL
Briefly: Inhibitory effect on 33PO4 uptake into human NaPi-IIb-expressing CHO cells. Type of assay: cell-based. The conditions noted are these: read-out: IC50. As to the method:
Test Example 2: Inhibitory Effect on PO4 Uptake into Human NaPi-IIb-Expressing Cell CHO cells were transfected with human NaPi-IIb expression plasmids, and a stably human NaPi-IIb-expressing cell line was obtained using G418. The human NaPi-IIb-expressing cells were inoculated to a 96-well plate and incubated overnight in a CO2 incubator. […] After a given time, a 1/20 volume of buffer A containing ^33PO4 was added thereto and reacted at room temperature. After washing with ice-cold buffer A, a liquid scintillator was added to each reaction mixture, and the amount of ^33PO4 uptake was measured using TopCount.
The term IC50 denotes the concentration at which inhibition is half-maximal. For `C[C@]12CCCN1N(Cc1cccc(F)c1F)C(=O)C(C(=O)Nc1ccc(C(F)(F)F)cc1-c1ccc(C(F)(F)F)nc1)=C2O` [Example 90], the IC50 was found to be 2.4 µM. On the same count and under the same terms, the result for `COc1cccc(-c2cc(C(F)(F)F)ccc2NC(=O)C2=C(O)[C@@]3(C)CCCN3N(Cc3ccc(OC[C@H]4CCCO4)c(F)c3F)C2=O)c1OC` [Example 159] reads 11.4 µM; that for `C[C@]12CCCN1N(Cc1cccc(F)c1F)C(=O)C(C(=O)Nc1ccc(C(F)(F)F)cc1-c1cc(C#N)ncn1)=C2O` [Example 100], 6.7 µM.

`C[C@]12CCCN1N(Cc1ccc(CCCCCCC(=O)O)c(F)c1F)C(=O)C(C(=O)Nc1ccc(Cl)cc1-c1ccc(C(F)(F)F)nc1)=C2O` [Example 116, 7-[4-[[(4aR)-3-[[4-Chloro-2-[6-(trifluoromethyl)pyridin-3-yl]phenyl]carbamoyl]-4-hydroxy-4a-methyl-2-oxo-6,7-dihydro-5H-pyrrolo[1,2-b]pyridazin-1-yl]methyl]-2,3-difluorophenyl]heptanoate]: the IC50 was found to be 8.1 µM. Still for that read-out and setting: the result for `C[C@]12CCCN1N(Cc1cccc(F)c1F)C(=O)C(C(=O)Nc1ccc(Br)c(F)c1)=C2O` [Example 28] reads 4.1 µM; that for `C[C@]12CCCN1N(Cc1ccccc1)C(=O)C(C(=O)Nc1ccc(C(F)(F)F)cc1-c1cc(C(F)(F)F)ncn1)=C2O` [Example 188], 6.1 µM; that for `C[C@]12CCCN1N(Cc1cccc(F)c1F)C(=O)C(C(=O)Nc1ccc(Br)cn1)=C2O` [Example 78], 5.2 µM.

Take `C[C@]12CCCN1N(Cc1ccc(F)c(F)c1)C(=O)C(C(=O)Nc1ccc(C(F)(F)F)cc1-c1cc(C(F)(F)F)ncn1)=C2O` [Example 214]: the concentration for half-maximal inhibition (IC50) was 7 µM. On the same count and under the same terms, the result for `CSc1ccc(-c2cc(C(F)(F)F)ccc2NC(=O)C2=C(O)C3(CCCC3)N(C)N(Cc3ccc(OCCN4CCOCC4)c(F)c3F)C2=O)cn1` [Example 289] reads 16.3 µM; that for `C[C@]12CCCN1N(Cc1cccc(F)c1F)C(=O)C(C(=O)Nc1ccc(Br)cc1-c1cc(C(F)(F)F)ncn1)=C2O` [Example 64], 6.5 µM.

The assay is the same for the next values; noted with them: read-out: IC50 against 33PO4 uptake into human NaPi-IIb-expressing cells.
In the case of `COCCN1CC(Oc2ccc(CN3C(=O)C(C(=O)Nc4ccc(C(F)(F)F)cc4-c4cc(C(F)(F)F)ncn4)=C(O)C4(CCC4)N3C)c(F)c2F)C1` [Example 406, 6-[[2,3-Difluoro-4-[1-(2-methoxyethyl)azetidin-3-yl]oxyphenyl]methyl]-9-hydroxy-5-methyl-7-oxo-N-[4-(trifluoromethyl)-2-[6-(trifluoromethyl)pyrimidin-4-yl]phenyl]-5,6-diazaspiro[3.5]non-8-ene-8-carboxamide], the half-maximal inhibitory concentration (IC50) was found to be 23.1 µM.

In the case of `CN(CCOCCOCCOCCOCCOc1ccc(CN2C(=O)C(C(=O)Nc3ccc(C(F)(F)F)cc3-c3cc(C(F)(F)F)ncn3)=C(O)C3(CCCC3)N2C)c(F)c1F)C[C@@H](O)[C@H](O)[C@@H](O)[C@@H](O)CO` [Example 421, 7-[[2,3-Difluoro-4-[2-[2-[2-[2-[2-[methyl-[(2R,3 S,4S,5 S)-2,3,4,5,6-pentahydroxyhexyl]amino]ethoxy]ethoxy]ethoxy]ethoxy]ethoxy]phenyl]methyl]-10-hydroxy-6-methyl-8-oxo-N-[4-(trifluoromethyl)-2-[6-(trifluoromethyl)pyrimidin-4-yl]phenyl]-6,7-diazaspiro[4.5]dec-9-ene-9-carboxamide], the IC50 was found to be 19.5 µM.

Consider `COCCOc1cc(NC(=O)C2=C(O)C3(CCCC3)N(C)N(Cc3ccc(OCCN(C)CCOC)c(F)c3F)C2=O)c(-c2ncnc(C(F)(F)F)c2C)cc1C(F)(F)F` [Example 439, 7-[[2,3-Difluoro-4-[2-[2-methoxyethyl(methyl)amino]ethoxy]phenyl]methyl]-10-hydroxy-N-[5-(2-methoxyethoxy)-2-[5-methyl-6-(trifluoromethyl)pyrimidin-4-yl]-4-(trifluoromethyl)phenyl]-6-methyl-8-oxo-6,7-diazaspiro[4.5]dec-9-ene-9-carboxamide], for which the 50% inhibitory concentration (IC50) stood at 18.9 µM.
